Results as given in patent US12098217B2, “Fusion peptides as antimicrobial agents” (CENTRE NATIONAL DE LA RECHERCHE SCIENTIFIQUE, priority 2019, dated 2024).
Converted amounts (≈) assume the structure as drawn. Like-named read-outs stand apart in the source and are kept apart here. Square brackets hold non-standard residues; d marks the D form. Peptide text beside a SMILES is read from it. * marks the point of attachment. 5FAM = O=C1OC2(c3ccc(O)cc3Oc3cc(O)ccc32)c2ccc(C(=O)*)cc21; Cha = N[C@@H](CC1CCCCC1)C(=O)O

Columns and labels:
[1] = system: E. coli D22 strain; experiment: microbe, parasite or virus in culture; format: cell-based
Source text: E. coli strain D22 (F-, IpxC101, proA23, lac-28, tsx-81, trp-30, his-51, tufA1, rpsL173(strR), ampCp-1 was purchased at E. coli Genetic Stock Center (Yale University) and used in the determination of MIC and in the peptide penetration assays. E. coli ATCC23724 cells were used to infect D. melanogaster flies. 70S ribosomes were purified from the E. coli MRE600 strain (Accession AY140951) and BL21 (DE3) pLys strain was used for production of the DnaN protein.
(§1) E. coli strains were cultivated on either agar or liquid 1× Mueller Hinton broth unless specified. MIC assays were performed in duplicate in 96-well microtiter plates on the basis of the protocol recommended by the Clinical and Laboratory Standards Institute. Briefly, a mix of 5-6 fresh (less than 36 hours) colonies grown on MH agar plates were inoculated in 3 ml of MH broth and incubated for about 16 h at 37° C. under agitation. 30 μl of this saturated culture were inoculated in 3 ml of fresh medium and allowed to grow until OD600 nm of about 0.6-0.8. Dilution to an OD600 nm of 0.002 was made in MH broth. Within a time laps not exceeding 30 min, 50 μl of this cell suspension was added to 50 μl of MH broth (containing or not the peptide/antibiotic diluted in MH broth) in wells of a 96-well round bottom microwell plate (Greiner; final cell density about 2 to 5×10^5 cfu/ml). Plates were incubated at 37° C. for 18-24 h and final turbidity of each well was measured at 620 nm using a Multiskan FC microplate reader (Thermo Scientific). MIC was defined as the minimal antibiotic concentration that result in no increase of turbidity at that time. Each MIC determination was performed in duplicate and at least in two independent experiments. Plating of 75 μl of the content of the wells of interest on LB Agar plates was used to determine the MBC that is defined by a decrease of at least 99.9% of cell viability as compared to the number of viable cells in the inoculum (about 2 to 5×10^4 cfu).

[2] = molecular target: T1, E. coli SC (^EcSC, beta ring, DnaN) (Escherichia coli, UniProt P0A988); experiment: ITC, peptide interaction with E. coli sliding clamp; format: binding
T1 construct: inferred from the pET15b vector and the Ni-NTA/imidazole purification; made in house; host or cells: E. coli BL21 (DE3) pLys
T1 sequence (P0A988 whole entry): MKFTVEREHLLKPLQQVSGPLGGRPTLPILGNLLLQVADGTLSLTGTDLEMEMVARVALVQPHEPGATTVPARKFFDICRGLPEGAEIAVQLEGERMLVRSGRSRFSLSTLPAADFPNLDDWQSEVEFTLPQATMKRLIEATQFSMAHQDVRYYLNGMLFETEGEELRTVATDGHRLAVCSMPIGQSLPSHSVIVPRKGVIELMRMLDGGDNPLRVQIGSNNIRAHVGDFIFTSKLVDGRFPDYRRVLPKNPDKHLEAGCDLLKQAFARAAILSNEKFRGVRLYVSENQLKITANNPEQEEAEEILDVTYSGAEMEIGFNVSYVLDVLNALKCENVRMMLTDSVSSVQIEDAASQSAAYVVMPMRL
Protocol: The DnaN protein was expressed from plasmids pET15b, containing the dnaN gene from E. coli, transfected in BL21 (DE3) pLys E. coli strain. Cells were grown in LB at 37° C. to OD 0.5, then induced by IPTG (0.1 mM) at 28° C. overnight. DnaN protein was first enriched on a Ni-NTA column, eluted with an imidazole step (300 mM) and further purified on a Source Q column in buffer containing 20 mM Tris HCl pH 7.5, 0.5 mM EDTA and 10% glycerol, using a gradient from 0 to 0.5 M NaCl. After a final ultracentrifugation (45K, 1 h, 20° C.), soluble proteins were concentrated on a Centricon 30K (Millipore) in the same buffer and stored at 4° C. in 2 M ammonium sulfate.
ITC experiments were performed on a iTC200 (Microcal Malvern Panalytical) or PEAQ-ITC instrument (Microcal Malvern Panalytical). The E. coli SC were washed extensively with ITC buffer (R1 buffer: 10 mM Hepes pH 7.4, 0.15 M NaCl, 3 mM EDTA) on Centrikon 10K at 4° C. before ITC experiments. […] Similarly, E. coli 70S ribosome particles were also washed extensively with ITC 70S buffer (50 mM Tris HCl pH7.5, 30 mM KCl, 70 mM NH4Cl, 7 mM MgCl2, 1 mM DTT, 5% glycerol) on Centrikon 100K at 4° C. before ITC experiments. […] […] Data were corrected from control experiments in which peptides were injected in ITC buffer solution. Each titration was performed at least twice. Analyses of experimental data were performed with AFFINImeter software (https://www.affinimeter.com; S4S, Santiago de Compostela, Spain).

[3] = system: E. coli 70S ribosome (^Ec70S); experiment: ITC, peptide interaction with E. coli 70S ribosome; format: binding; details: for ΔG / ΔH / −TΔS: FITC peptides (*) values not well defined
Protocol: E. coli MRE600 cells were grown at 37° C. in LB medium until OD^600=1. Cells were centrifuged at 4° C., and pellets were resuspended in buffer A (20 mM Tris HCl pH 7.5; 200 mM NH4Cl; 20 mM MgCl2; 0.1 mM EDTA; 6 mM β-mercaptoethanol) and lysed using a French press at 1.6 kbar. The crude lysate was centrifuged (18 200 rpm) for 30 mn at 4° C. The supernatant was further centrifuged (47000 rpm) at 4° C. for 4 hours and the pellet resuspended in 12.5 ml of buffer A. This solution was laid on a 30% sucrose cushion and centrifuged (34 000 rpm) for 19 hours at 4° C. The ribosome pellet was resuspended in 12.5 ml buffer B (20 mM Tris HCl pH 7.5; 50 mM NH4Cl; 10 mM MgCl2; 0.1 mM EDTA; 6 mM β-mercaptoethanol) and centrifuged again (18 200 rpm) for 1 hour at 4° C. The supernatant was concentrated on Centrikon 100K (Millipore) and washed extensively with ITC 70S buffer. Ribosome concentration was determined by UV absorption at 260 nm. Samples were snap frozen in liquid nitrogen and kept at −80° C.
ITC experiments were performed on a iTC200 (Microcal Malvern Panalytical) or PEAQ-ITC instrument (Microcal Malvern Panalytical). The E. coli SC were washed extensively with ITC buffer (R1 buffer: 10 mM Hepes pH 7.4, 0.15 M NaCl, 3 mM EDTA) on Centrikon 10K at 4° C. before ITC experiments. […] Similarly, E. coli 70S ribosome particles were also washed extensively with ITC 70S buffer (50 mM Tris HCl pH7.5, 30 mM KCl, 70 mM NH4Cl, 7 mM MgCl2, 1 mM DTT, 5% glycerol) on Centrikon 100K at 4° C. before ITC experiments. Peptides (100 to 400 μM) were titrated at 30° C. (303.15 K) in sequential injections (usually 2 μl each) into a SC (20 or 30 μM) or 70S (10 to 15 μM) solution. Data were corrected from control experiments in which peptides were injected in ITC buffer solution. Each titration was performed at least twice. Analyses of experimental data were performed with AFFINImeter software (https://www.affinimeter.com; S4S, Santiago de Compostela, Spain).
The lack of interaction with the ribosome of E. coli has been measured by ITC at 30° C.:
The interactions of these peptides with the E. coli SC (beta ring) and the ribosome were measured by ITC at […]: […]

[4] = system: E. coli ATCC 25922 (DSM 1103) strain; format: cell-based; details: ATCC 25922, 36 h
Protocol: as §1
The antimicrobial activities of these peptides have been tested against the E. coli ATCC 25922 (DSM 1103) strain in 1× Mueller-Hinton broth as mentioned above.
The antimicrobial activities of these peptides and controls have been tested against the E. coli ATCC 25922 (DSM 1103) strain in 1× Mueller-Hinton broth.

[5] = ITC 30° C. (303.15 K), Table 2A, ^EcSC, Ni = no specific interaction
[6] = ITC 30° C., Table 2A, ^EcSC, Ni = no specific interaction
[7] = ITC 30° C., Table 2B, ^Ec70S, Ni = no specific interaction
[8] = E. coli D22, Mueller Hinton broth, range of at least 2 independent experiments

## CC[C@H](C)[C@H](NC(=O)[C@@H]1CCCN1C(=O)[C@H](CCCNC(=N)N)NC(=O)[C@@H]1CCCN1C(=O)[C@@H]1CCCN1C(=O)[C@@H](NC(=O)[C@@H]1CCCN1C(=O)[C@H](CCCNC(=N)N)NC(=O)[C@@H]1CCCN1C(=O)[C@H](CC(C)C)NC(=O)[C@H](Cc1ccc(O)cc1)NC(=O)[C@H](CO)NC(=O)CNC(=O)[C@H](CCCCN)NC(=O)[C@H](CC(=O)O)NC(=O)[C@@H](N)C(C)C)[C@@H](C)O)C(=O)N[C@@H](Cc1ccc(O)cc1)C(=O)N[C@@H](CC(N)=O)C(=O)N[C@@H](CCCNC(=N)N)C(=O)N[C@@H](CC(N)=O)C(=O)NCC(=O)N1CCC[C@H]1C(=O)N[C@@H](CCCNC(=N)N)C(=O)N[C@@H](CC1CCCCC1)C(=O)N[C@@H](Cc1ccccc1)C(=O)N[C@@H](CCC(N)=O)C(=O)N[C@@H](CC(C)C)C(=O)N[C@@H](CC(=O)O)C(=O)O [Peptide P188]
[1]; D22 strain
  MIC (μM): 1.2 to 2.4 µM
  MIC (μg/ml): 4 to 8 µg/mL
[2]; ITC 30° C.
  interaction with ^EcSC, in words: fail to interact
[2]; [5]
  ΔH (kcal/mole): Ni
[2]; [6]
  Kd (nM): Ni
  ΔG (kcal/mole): Ni
  −TΔS (kcal/mole): Ni
[3]; [7]
  Kd: 75.8 nM
  ΔG: -9.89 kcal/mol
  ΔH: -15.4 kcal/mol
  −TΔS: 5.5 kcal/mol

## CC[C@H](C)[C@H](NC(=O)[C@@H](CCCNC(=N)N)NC(=O)[C@H](CCCNC(=N)N)NC(=O)[C@@H]1CCCN1C(=O)[C@@H]1CCCN1C(=O)[C@H](CCCNC(=N)N)NC(=O)[C@@H]1CCCN1C(=O)[C@H](CCCNC(=N)N)NC(=O)[C@@H]1CCCN1C(=O)[C@H](CC(C)C)NC(=O)[C@H](Cc1ccc(O)cc1)NC(=O)[C@@H]1CCCN1C(=O)[C@@H]1CCCN1C(=O)[C@H](CCCCN)NC(=O)[C@H](CC(=O)O)NC(=O)[C@@H](NC(=O)[C@H](CCCCN)NC(=O)c1ccc2c(c1)C(=O)OC21c2ccc(O)cc2Oc2cc(O)ccc21)C(C)C)C(=O)N[C@@H](Cc1ccc(O)cc1)C(=O)N[C@@H](CC(N)=O)C(=O)N[C@H](CCCNC(=N)N)C(=O)NCC(=O)N1CCC[C@H]1C(=O)N[C@@H](CCCNC(=N)N)C(=O)N[C@@H](CCC(N)=O)C(=O)N[C@@H](CC1CCCCC1)C(=O)N[C@@H](CC(=O)O)C(=O)N[C@@H](CC(C)C)C(=O)N[C@@H](Cc1ccccc1)C(=O)O [CM1-92] (5FAM-KVDKPPYLPRPRPPR[dR]IYN[dR]GPRQ[Cha]DLF-OH)
[4]
  MIC: 16 µM (≈ 61.5 µg/mL)
[3]; ITC, 30° C., E. coli ribosome, FITC-Onc112 series
  Kd: > 50000 nM

## CC[C@H](C)[C@H](NC(=O)[C@@H]1CCCN1C(=O)[C@H](CCCNC(=N)N)NC(=O)[C@@H]1CCCN1C(=O)[C@@H]1CCCN1C(=O)[C@@H](NC(=O)[C@@H]1CCCN1C(=O)[C@H](CCCNC(=N)N)NC(=O)[C@@H]1CCCN1C(=O)[C@H](CC(C)C)NC(=O)[C@H](Cc1ccc(O)cc1)NC(=O)[C@H](CO)NC(=O)CNC(=O)[C@H](CCCCN)NC(=O)[C@H](CC(=O)O)NC(=O)[C@@H](N)C(C)C)[C@@H](C)O)C(=O)N[C@@H](Cc1ccc(O)cc1)C(=O)N[C@@H](CC(N)=O)C(=O)N[C@@H](CCCNC(=N)N)C(=O)N[C@@H](CC(N)=O)C(=O)NCC(=O)N1CCC[C@H]1C(=O)N[C@@H](CCCNC(=N)N)C(=O)N[C@@H](CCC(N)=O)C(=O)N[C@@H](CC1CCCCC1)C(=O)N[C@@H](CC(=O)O)C(=O)N[C@@H](CC(C)C)C(=O)N[C@@H](Cc1ccccc1)C(=O)O [Peptide P116] (H-VDKGSYLPRPTPPRPIYNRNGPRQ[Cha]DLF-OH)
[1]; D22 strain
  MBC: 8 µg/mL (≈ 2.42 µM)
  MIC (μM): 1.2 to 2.4 µM
  MIC (μg/ml): 4 to 8 µg/mL
[1]; E. coli D22, microdilution broth assay
  antibacterial activity, in words: no increase in the activity
[2]; ITC 30° C.
  interaction with ^EcSC, in words: as efficiently as P7 alone
[2]; [5]
  ΔH: -13.9 kcal/mol
[2]; [6]
  ΔG: -9.61 kcal/mol
  −TΔS: 4.3 kcal/mol
[3]; ITC 30° C.
  interaction with ^Ec70S, in words: efficiently interact
[3]; [7]
  Kd: 37 nM
  ΔG: -10.3 kcal/mol
  ΔH: -22.3 kcal/mol
  −TΔS: 12 kcal/mol
[3]; from Table 2, ^Ec70S versus ^EcSC
  affinity for the ribosome relative to affinity for SC: three times higher affinity

## CN(C)[C@@H]1C(=O)C(C(N)=O)=C(O)[C@@]2(O)C(=O)C3=C(O)c4c(O)cccc4[C@@](C)(O)[C@H]3C[C@@H]12 [Tetracyclin, reference compound]
[1]; [8]
  MIC (μM): 0.56 to 1.12 µM
  MIC (μg/ml): 0.25 to 0.5 µg/mL
[1]; E. coli D22, decrease of at least 99.9% of cell viability
  MBC: 0.5 µg/mL (≈ 1.13 µM)

## CC1(C)S[C@@H]2[C@H](NC(=O)[C@H](N)c3ccccc3)C(=O)N2[C@H]1C(=O)O [Ampicillin, reference compound]
[1]; Escherichia coli, D22STRAIN, E. coli D22, Mueller Hinton broth, range of at least 2 independent experiments, read-out: MIC
  MIC: 22.9 to 45.8 µM
[1]; Escherichia coli, D22STRAIN, E. coli D22, Mueller Hinton broth, range of at least 2 independent experiments, read-out: MIC (μg/ml)
  MIC: 8 to 16 µg/mL
[1]; Escherichia coli, D22STRAIN, E. coli D22, decrease of at least 99.9% of cell viability, read-out: MBC
  MBC: 16 µg/mL (≈ 45.8 µM)
